Experimental data: BindingDB's records for doi:10.1016/j.ejmech.2019.02.016 (National Health Research Institutes, 2019)

Experiment: Inhibition of NS5A in HCV genotype 1b infected in human HuH7 replicon cells assessed as reduction in subgenomic viral RNA replication treated for 2 days followed by compound washout and subsequent compound dosing measured after 1 day by SEAP reporter gene assay

| SMILES | EC50 [nM] |
| --- | --- |
| COC(=O)N[C@H](C(=O)N1CCC[C@H]1c1ncc(-c2ccc(-c3ccc(-c4cnc([C@@H]5CCCN5C(=O)[C@@H](NC(=O)OC)c5ccccc5)s4)cc3)cc2)s1)c1ccccc1 | 41 |
| O=C(N[C@@H](C(=O)N1CCC[C@H]1c1ncc(-c2ccc(-c3ccc(-c4cnc([C@@H]5CCCN5C(=O)[C@H](NC(=O)C5CC5)C5CCCCC5)s4)cc3)cc2)s1)C1CCCCC1)C1CC1 | > 50000 |
| O=C(CCN1CCOCC1)N[C@H](C(=O)N1CCC[C@H]1c1ncc(-c2ccc(-c3ccc(-c4cnc([C@@H]5CCCN5C(=O)[C@H](NC(=O)CCN5CCOCC5)c5ccccc5)s4)cc3)cc2)s1)c1ccccc1 | 2.6 |
| O=C(N[C@@H](C(=O)N1CCC[C@H]1c1ncc(-c2ccc(-c3ccc(-c4cnc([C@@H]5CCCN5C(=O)[C@H](NC(=O)c5cccs5)c5ccccc5)s4)cc3)cc2)s1)c1ccccc1)c1cccs1 | 1.4 |
| O=C(N[C@@H](C(=O)N1CCC[C@H]1c1ncc(-c2ccc(-c3ccc(-c4cnc([C@@H]5CCCN5C(=O)[C@H](NC(=O)C5CCC5)c5ccccc5)s4)cc3)cc2)s1)c1ccccc1)C1CCC1 | 0.007 |
| O=C(N[C@H](C(=O)N1CCC[C@H]1c1ncc(-c2ccc(-c3ccc(-c4cnc([C@@H]5CCCN5C(=O)[C@H](NC(=O)N5CCOCC5)c5ccccc5)s4)cc3)cc2)s1)c1ccccc1)N1CCOCC1 | 1.1 |
| O=C(N[C@H](C(=O)N1CCC[C@H]1c1ncc(-c2ccc(-c3ccc(-c4cnc([C@@H]5CCCN5C(=O)[C@H](NC(=O)C5CCCCC5)c5ccccc5)s4)cc3)cc2)s1)c1ccccc1)C1CCCCC1 | 40 |
| CN1CCN(CCC(=O)N[C@@H](C(=O)N2CCC[C@H]2c2ncc(-c3ccc(-c4ccc(-c5cnc([C@@H]6CCCN6C(=O)[C@H](NC(=O)CCN6CCN(C)CC6)c6ccccc6)s5)cc4)cc3)s2)c2ccccc2)CC1 | 7.2 |
| COC(=O)N[C@H](C(=O)N1CCC[C@H]1c1ncc(-c2ccc(-c3ccc(-c4cnc([C@@H]5CCCN5C(=O)[C@H](NC(=O)OC)c5ccccc5)s4)cc3)cc2)s1)c1ccccc1 | 108 |
| COC(=O)N[C@@H](C(=O)N1CCC[C@H]1c1ncc(-c2ccc(-c3ccc(-c4cnc([C@@H]5CCCN5C(=O)[C@H](NC(=O)OC)c5ccccc5)s4)cc3)cc2)s1)c1ccccc1 | 0.19 |
| CCOC(=O)N[C@H](C(=O)N1CCC[C@H]1c1ncc(-c2ccc(-c3ccc(-c4cnc([C@@H]5CCCN5C(=O)[C@@H](NC(=O)OCC)C(C)C)s4)cc3)cc2)s1)C(C)C | 327 |
| CC(C)[C@H](NC(=O)Oc1ccccc1)C(=O)N1CCC[C@H]1c1ncc(-c2ccc(-c3ccc(-c4cnc([C@@H]5CCCN5C(=O)[C@@H](NC(=O)Oc5ccccc5)C(C)C)s4)cc3)cc2)s1 | 2820 |
| COC(=O)N[C@@H](C)C(=O)N1CCC[C@H]1c1ncc(-c2ccc(-c3ccc(-c4cnc([C@@H]5CCCN5C(=O)[C@H](C)NC(=O)OC)s4)cc3)cc2)s1 | 159 |
| CCC[C@H](NC(=O)OC)C(=O)N1CCC[C@H]1c1ncc(-c2ccc(-c3ccc(-c4cnc([C@@H]5CCCN5C(=O)[C@H](CCC)NC(=O)OC)s4)cc3)cc2)s1 | 123 |
| COC(=O)N[C@@H](CC(C)C)C(=O)N1CCC[C@H]1c1ncc(-c2ccc(-c3ccc(-c4cnc([C@@H]5CCCN5C(=O)[C@H](CC(C)C)NC(=O)OC)s4)cc3)cc2)s1 | 179 |
| CC(C)C[C@@H](NC(=O)C1CC1)C(=O)N1CCC[C@H]1c1ncc(-c2ccc(-c3ccc(-c4cnc([C@@H]5CCCN5C(=O)[C@@H](CC(C)C)NC(=O)C5CC5)s4)cc3)cc2)s1 | 27 |
| CC(C)[C@@H](NC(=O)C1CC1)C(=O)N1CCC[C@H]1c1ncc(-c2ccc(-c3ccc(-c4cnc([C@@H]5CCCN5C(=O)[C@H](NC(=O)C5CC5)C(C)C)s4)cc3)cc2)s1 | 732 |
| CCC[C@@H](NC(=O)C1CC1)C(=O)N1CCC[C@H]1c1ncc(-c2ccc(-c3ccc(-c4cnc([C@@H]5CCCN5C(=O)[C@@H](CCC)NC(=O)C5CC5)s4)cc3)cc2)s1 | 92 |
| CC[C@@H](NC(=O)C1CC1)C(=O)N1CCC[C@H]1c1ncc(-c2ccc(-c3ccc(-c4cnc([C@@H]5CCCN5C(=O)[C@@H](CC)NC(=O)C5CC5)s4)cc3)cc2)s1 | 433 |
| O=C(CCN1CCCCC1)N[C@H](C(=O)N1CCC[C@H]1c1ncc(-c2ccc(-c3ccc(-c4cnc([C@@H]5CCCN5C(=O)[C@H](NC(=O)CCN5CCCCC5)c5ccccc5)s4)cc3)cc2)s1)c1ccccc1 | 16 |
| O=C(CCN1CCCC1)N[C@H](C(=O)N1CCC[C@H]1c1ncc(-c2ccc(-c3ccc(-c4cnc([C@@H]5CCCN5C(=O)[C@H](NC(=O)CCN5CCCC5)c5ccccc5)s4)cc3)cc2)s1)c1ccccc1 | 23 |
| O=C(CCn1cccc1)N[C@H](C(=O)N1CCC[C@H]1c1ncc(-c2ccc(-c3ccc(-c4cnc([C@@H]5CCCN5C(=O)[C@H](NC(=O)CCn5cccc5)c5ccccc5)s4)cc3)cc2)s1)c1ccccc1 | 0.23 |
| O=C(N[C@H](C(=O)N1CCC[C@H]1c1ncc(-c2ccc(-c3ccc(-c4cnc([C@@H]5CCCN5C(=O)[C@H](NC(=O)N5CCCCC5)c5ccccc5)s4)cc3)cc2)s1)c1ccccc1)N1CCCCC1 | 1.9 |
| O=C(N[C@H](C(=O)N1CCC[C@H]1c1ncc(-c2ccc(-c3ccc(-c4cnc([C@@H]5CCCN5C(=O)[C@H](NC(=O)N5CCCC5)c5ccccc5)s4)cc3)cc2)s1)c1ccccc1)N1CCCC1 | 1.3 |

| SMILES | EC50 [nM] |
| --- | --- |
| O=C(N[C@H](C(=O)N1CCC[C@H]1c1ncc(-c2ccc(-c3ccc(-c4cnc([C@@H]5CCCN5C(=O)[C@H](NC(=O)c5cccs5)c5ccccc5)s4)cc3)cc2)s1)c1ccccc1)c1cccs1 | 110 |
| O=C(N[C@H](C(=O)N1CCC[C@H]1c1ncc(-c2ccc(-c3ccc(-c4cnc([C@@H]5CCCN5C(=O)[C@H](NC(=O)c5ccoc5)c5ccccc5)s4)cc3)cc2)s1)c1ccccc1)c1ccoc1 | 0.63 |
| O=C(N[C@H](C(=O)N1CCC[C@H]1c1ncc(-c2ccc(-c3ccc(-c4cnc([C@@H]5CCCN5C(=O)[C@H](NC(=O)c5ccco5)c5ccccc5)s4)cc3)cc2)s1)c1ccccc1)c1ccco1 | 1.7 |
| O=C(N[C@H](C(=O)N1CCC[C@H]1c1ncc(-c2ccc(-c3ccc(-c4cnc([C@@H]5CCCN5C(=O)[C@H](NC(=O)c5cccnc5)c5ccccc5)s4)cc3)cc2)s1)c1ccccc1)c1cccnc1 | 2.1 |
| O=C(N[C@H](C(=O)N1CCC[C@H]1c1ncc(-c2ccc(-c3ccc(-c4cnc([C@@H]5CCCN5C(=O)[C@H](NC(=O)c5ccccc5)c5ccccc5)s4)cc3)cc2)s1)c1ccccc1)c1ccccc1 | 272 |
| O=C(N[C@H](C(=O)N1CCC[C@H]1c1ncc(-c2ccc(-c3ccc(-c4cnc([C@@H]5CCCN5C(=O)[C@H](NC(=O)C5CCC5)c5ccccc5)s4)cc3)cc2)s1)c1ccccc1)C1CCC1 | 0.45 |
| O=C(N[C@H](C(=O)N1CCC[C@H]1c1ncc(-c2ccc(-c3ccc(-c4cnc([C@@H]5CCCN5C(=O)[C@H](NC(=O)C5CC5)c5ccccc5)s4)cc3)cc2)s1)c1ccccc1)C1CC1 | 1.5 |
| CC(C)(C)C(=O)N[C@H](C(=O)N1CCC[C@H]1c1ncc(-c2ccc(-c3ccc(-c4cnc([C@@H]5CCCN5C(=O)[C@H](NC(=O)C(C)(C)C)c5ccccc5)s4)cc3)cc2)s1)c1ccccc1 | 52 |
| CCCCC(=O)N[C@H](C(=O)N1CCC[C@H]1c1ncc(-c2ccc(-c3ccc(-c4cnc([C@@H]5CCCN5C(=O)[C@H](NC(=O)CCCC)c5ccccc5)s4)cc3)cc2)s1)c1ccccc1 | 7.6 |
| CCCC(=O)N[C@H](C(=O)N1CCC[C@H]1c1ncc(-c2ccc(-c3ccc(-c4cnc([C@@H]5CCCN5C(=O)[C@H](NC(=O)CCC)c5ccccc5)s4)cc3)cc2)s1)c1ccccc1 | 0.77 |
| CCC(=O)N[C@H](C(=O)N1CCC[C@H]1c1ncc(-c2ccc(-c3ccc(-c4cnc([C@@H]5CCCN5C(=O)[C@H](NC(=O)CC)c5ccccc5)s4)cc3)cc2)s1)c1ccccc1 | 0.85 |
| CCN(CC)CCC(=O)N[C@@H](C(=O)N1CCC[C@H]1c1ncc(-c2ccc(-c3ccc(-c4cnc([C@@H]5CCCN5C(=O)[C@H](NC(=O)CCN(CC)CC)c5ccccc5)s4)cc3)cc2)s1)c1ccccc1 | 1 |
| CN(C)CCC(=O)N[C@@H](C(=O)N1CCC[C@H]1c1ncc(-c2ccc(-c3ccc(-c4cnc([C@@H]5CCCN5C(=O)[C@H](NC(=O)CCN(C)C)c5ccccc5)s4)cc3)cc2)s1)c1ccccc1 | 2.5 |
| O=C(N[C@@H](C(=O)N1CCC[C@H]1c1ncc(-c2ccc(-c3ccc(-c4cnc([C@@H]5CCCN5C(=O)[C@H](NC(=O)N5CCCCC5)c5ccccc5)s4)cc3)cc2)s1)c1ccccc1)N1CCCCC1 | 0.016 |
| O=C(N[C@@H](C(=O)N1CCC[C@H]1c1ncc(-c2ccc(-c3ccc(-c4cnc([C@@H]5CCCN5C(=O)[C@H](NC(=O)N5CCCC5)c5ccccc5)s4)cc3)cc2)s1)c1ccccc1)N1CCCC1 | 0.035 |
| O=C(N[C@@H](C(=O)N1CCC[C@H]1c1ncc(-c2ccc(-c3ccc(-c4cnc([C@@H]5CCCN5C(=O)[C@H](NC(=O)c5ccsc5)c5ccccc5)s4)cc3)cc2)s1)c1ccccc1)c1ccsc1 | 0.53 |
| O=C(N[C@@H](C(=O)N1CCC[C@H]1c1ncc(-c2ccc(-c3ccc(-c4cnc([C@@H]5CCCN5C(=O)[C@H](NC(=O)c5ccco5)c5ccccc5)s4)cc3)cc2)s1)c1ccccc1)c1ccco1 | 0.07 |
| O=C(N[C@@H](C(=O)N1CCC[C@H]1c1ncc(-c2ccc(-c3ccc(-c4cnc([C@@H]5CCCN5C(=O)[C@H](NC(=O)c5ccccn5)c5ccccc5)s4)cc3)cc2)s1)c1ccccc1)c1ccccn1 | 46 |
| O=C(N[C@@H](C(=O)N1CCC[C@H]1c1ncc(-c2ccc(-c3ccc(-c4cnc([C@@H]5CCCN5C(=O)[C@H](NC(=O)c5ccccc5)c5ccccc5)s4)cc3)cc2)s1)c1ccccc1)c1ccccc1 | 21 |
| O=C(N[C@@H](C(=O)N1CCC[C@H]1c1ncc(-c2ccc(-c3ccc(-c4cnc([C@@H]5CCCN5C(=O)[C@H](NC(=O)C5CCCCC5)c5ccccc5)s4)cc3)cc2)s1)c1ccccc1)C1CCCCC1 | 0.25 |
| O=C(N[C@@H](C(=O)N1CCC[C@H]1c1ncc(-c2ccc(-c3ccc(-c4cnc([C@@H]5CCCN5C(=O)[C@H](NC(=O)C5CCCC5)c5ccccc5)s4)cc3)cc2)s1)c1ccccc1)C1CCCC1 | 0.006 |
| CC(C)(C)C(=O)N[C@@H](C(=O)N1CCC[C@H]1c1ncc(-c2ccc(-c3ccc(-c4cnc([C@@H]5CCCN5C(=O)[C@H](NC(=O)C(C)(C)C)c5ccccc5)s4)cc3)cc2)s1)c1ccccc1 | 1.4 |
| CCCCCC(=O)N[C@@H](C(=O)N1CCC[C@H]1c1ncc(-c2ccc(-c3ccc(-c4cnc([C@@H]5CCCN5C(=O)[C@H](NC(=O)CCCCC)c5ccccc5)s4)cc3)cc2)s1)c1ccccc1 | 0.063 |
